Test results published in US11242537B2, “Method for improving sensitivity of plant to gibberellin inhibitor and use thereof” (CHINA AGRICULTURAL UNIVERSITY, priority 2017, dated 2022).

Key:
ZmCPS::ga1-1 = experiment: Effect of DPC on plant height (step 4.1), ZmCPS::ga1-1; type: in vivo, Arabidopsis thaliana; conditions: for Plant height: 12 days; for Plant height reduction rate: relative to 0 mg/L
Procedure: (§1) In the following examples, the growth conditions of Arabidopsis thaliana are: culturing in a growth chamber with a photoperiod of 16 h light/8 h dark, a light intensity of 60 μmol/m^2/s, a humidity of 60%-70%, and a temperature of 22° C.
(§2) The experiment was repeated three times, and the specific steps of each repeated experiment were as follows:
(§3) Thirty homozygous line plants of the HRP::ga1-1 of step 2 were randomly selected and randomly divided into three groups, ten plants in each group. On the 33rd day of sowing (the day of sowing was recorded as the first day of sowing), the plants of these three groups were treated as follows, respectively one group was sprayed with water (i.e., 0 mg/L DPC solution) and cultured for 12 days to obtain untreated HRP::ga1-1; one group was sprayed with 30 mg/L DPC solution and cultured for 12 days to obtain 30 mg/L DPC-treated HRP::ga1-1; the last group was sprayed with 500 mg/L aqueous DPC solution and cultured for 12 days to obtain 500 mg/L DPC-treated HRP::ga1-1.
(§4) According to the above method, the homozygous line plants of the HRP::ga1-1 were replaced with the homozygous line plants of the HRP::ga1-5, the homozygous line plants of the ZmCPS::ga1-1, the homozygous line plants of the ZmCPS::ga1-5, the homozygous line plants of the PsSuper1300::ga1-1 and the homozygous line plants of the PsSuper1300::ga1-5 respectively, the other steps were unchanged, and untreated HRP::ga1-5, 30 mg/L DPC-treated HRP::ga1-5, 500 mg/L DPC-treated HRP::ga1-5, untreated ZmCPS::ga1-1, 30 mg/L DPC-treated ZmCPS::ga1-1, 500 mg/L DPC-treated ZmCPS::ga1-1, untreated ZmCPS::ga1-5, 30 mg/L DPC-treated ZmCPS::ga1-5, 500 mg/L DPC-treated ZmCPS::ga1-5, untreated PsSuper1300::ga1-1, 30 mg/L DPC-treated PsSuper1300::ga1-1, 500 mg/L DPC-treated PsSuper1300::ga1-1, untreated PsSuper1300::ga1-5, 30 mg/L DPC-treated PsSuper1300::ga1-5 and 500 mg/L DPC-treated PsSuper1300::ga1-5 were obtained, respectively.
(§5) The plant heights of the above Arabidopsis thaliana before the treatment (FIG. 1) and after different treatments (FIG. 2 and Table 2) were measured.

maize Zhengdan 958 = conditions: 1000 mg/L DPC (Chen yin, 2012); cited from earlier work
HRP::ga1-1 = experiment: Effects of different concentrations of DPC on plant height (step 4.2), HRP::ga1-1; type: in vivo, Arabidopsis thaliana
Procedure: as §1, §2
Seventy homozygous line plants of the HRP::ga1-1 of step 2 were randomly selected and randomly divided into seven groups, ten plants in each group. On the 33rd day of sowing (the day of sowing was recorded as the first day of sowing), the plants of these seven groups were treated as follows, respectively: one group was sprayed with water (i.e., 0 mg/L aqueous DPC solution) and cultured for 12 days to obtain untreated HRP::ga1-1; one group was sprayed with 30 mg/L aqueous DPC solution and cultured for 12 days to obtain 30 mg/L DPC-treated HRP::ga1-1; one group was sprayed with 50 mg/L aqueous DPC solution and cultured for 12 days to obtain 50 mg/L DPC-treated HRP::ga1-1; one group was sprayed with 100 mg/L aqueous DPC solution and cultured for 12 days to obtain 100 mg/L DPC-treated HRP::ga1-1; one group was sprayed with 300 mg/L aqueous DPC solution and cultured for 12 days to obtain 300 mg/L DPC-treated HRP::ga1-1; one group was sprayed with 500 mg/L aqueous DPC solution and cultured for 12 days to obtain 500 mg/L DPC-treated HRP::ga1-1; one group was sprayed with 1000 mg/L aqueous DPC solution and cultured for 12 days to obtain 1000 mg/L DPC-treated HRP::ga1-1.
The plant heights of the differently treated Arabidopsis thaliana were measured respectively (FIG. 3), and the average plant heights are shown in Table 3.

ga1-5 = experiment: Effect of DPC on plant height (step 4.1), mutant ga1-5; type: in vivo, Arabidopsis thaliana; conditions: for Plant height: 12 days; for Plant height reduction rate: relative to 0 mg/L
Procedure: as §1, §2
(§6) When the ga1-1 was cultured to the 33rd day of sowing (the day of sowing was recorded as the first day of sowing), 30 plants were taken and randomly divided into three groups, ten plants in each group and the plants of these three groups were treated as follows, respectively: one group was sprayed with 0 mg/L DPC solution and cultured for 12 days to obtain untreated ga1-1; one group was sprayed with 30 mg/L aqueous DPC solution and cultured for 12 days to obtain 30 mg/L DPC-treated ga1-1; the last group was sprayed with 500 mg/L DPC solution and cultured for 12 days to obtain 500 mg/L DPC-treated ga1-1.
According to the above method, the ga1-1 was replaced with the ga1-5, the other steps were unchanged, and untreated ga1-5, 30 mg/L DPC-treated ga1-5, and 500 mg/L DPC-treated ga1-5 were obtained, respectively.
as §5

pSuper1300::ga1-1 = experiment: Effect of DPC on plant height (step 4.1), empty vector pSuper1300::ga1-1; type: in vivo, Arabidopsis thaliana; conditions: for Plant height: 12 days; for Plant height reduction rate: relative to 0 mg/L
Procedure: as §1, §2, §3, §4, §5

ga1-1 = experiment: Effect of DPC on plant height (step 4.1), mutant ga1-1; type: in vivo, Arabidopsis thaliana; conditions: for Plant height: 12 days; for Plant height reduction rate: relative to 0 mg/L
Procedure: as §1, §2, §6, §5

B73 (WT) = experiment: Sensitivity of wild type maize B73 to DPC; type: in vivo; conditions: 500 ppm (5 mM) DPC spray
Procedure: The WT and transgenic plants were sprayed with DPC during jointing stage to test their DPC sensitivity: the whole plant was sprayed with 500 ppm […] DPC when the maize was grown to 7 leaf expansion phase and 12 leaf expansion phase. Plant height and ear height were measured 2 weeks after treatment and after tasseling.

## C[N+]1(C)CCCCC1.[Cl-] [DPC, 1,1-dimethylpiperidinium chloride]
ZmCPS::ga1-1; 30 mg/L DPC spray
  Plant height: 16.52 ± 0.31 cm
ZmCPS::ga1-1; 30 mg/L DPC
  Plant height reduction rate: −0.12%
ZmCPS::ga1-1; 500 mg/L DPC spray
  Plant height: 16.45 ± 0.21 cm
ZmCPS::ga1-1; 500 mg/L DPC
  Plant height reduction rate: 0.30%
ZmCPS::ga1-1; 30 and 500 mg/L DPC
  Effect of DPC on plant height (in words): no effect
Maize Zhengdan 958
  Plant height and stem diameter compared with control: no significant difference
HRP::ga1-1; 30 mg/L DPC spray, 12 days (step 4.2)
  Plant height (average): 9.714 cm
HRP::ga1-1; 50 mg/L DPC spray, 12 days
  Plant height (average): 9.314 cm
HRP::ga1-1; 100 mg/L DPC spray, 12 days
  Plant height (average): 9.343 cm
HRP::ga1-1; 300 mg/L DPC spray, 12 days
  Plant height (average): 8.857 cm
HRP::ga1-1; 500 mg/L DPC spray, 12 days (step 4.2)
  Plant height (average): 8.586 cm
HRP::ga1-1; 1000 mg/L DPC spray, 12 days
  Plant height (average): 7.243 cm
ga1-5; 30 mg/L DPC spray
  Plant height: 6.55 ± 0.10 cm
ga1-5; 30 mg/L DPC
  Plant height reduction rate: 6.83%
ga1-5; 500 mg/L DPC spray
  Plant height: 6.40 ± 0.12 cm
ga1-5; 500 mg/L DPC
  Plant height reduction rate: 8.96%
pSuper1300::ga1-1; 30 mg/L DPC spray
  Plant height: 4.33 ± 0.27 cm
pSuper1300::ga1-1; 30 mg/L DPC
  Plant height reduction rate: 4.84%
pSuper1300::ga1-1; 500 mg/L DPC spray
  Plant height: 3.98 ± 0.17 cm
pSuper1300::ga1-1; 500 mg/L DPC
  Plant height reduction rate: 12.53%
ga1-1; 30 mg/L DPC spray
  Plant height: 4.13 ± 0.25 cm
ga1-1; 30 mg/L DPC
  Plant height reduction rate: 13.60%
ga1-1; 500 mg/L DPC spray
  Plant height: 3.95 ± 0.10 cm
ga1-1; 500 mg/L DPC
  Plant height reduction rate: 17.36%
B73 (WT); B73 wild type
  Ear height: 91.3
  Plant height at 2 weeks after treatment: 151
  Plant height at tasseling stage: 207.5
B73 (WT); WT (B73)
  Sensitivity of the plant to DPC (in words): insensitive
